Results: patent US20200268701A1, “COMPOSITIONS AND METHODS FOR PRODUCING ELEVATED AND SUSTAINED KETOSIS” (University of South Florida, priority 2013, published 2020)
Counter-ions that a name gives are not always drawn.

Tests used:
[1] = human, in vivo, po
Procedure: All procedures were done in accordance with the University of South Florida Institutional Review Board (IRB) guidelines. BHB salts and MCT oil were given to human subjects as a ketogenic food supplement and blood measurements of BHB and/or glucose were taken at predetermined time points.
To determine the time course of ketosis, the subjects were orally given the test substances of a BHB salt solution (450 mL; 4%, approximately 18 g), an MCT oil (30 mL, approximately 30 g), or a combination of the a BHB salt solution and an MCT oil. Blood concentrations of glucose and BHB were determined utilizing a commercially available glucose/ketone monitoring system (Precision Xtra® blood glucose and ketone meter) at defined time points (0, 15, 30, 60, 120, 240 and 480 minutes following ingestion of the test substances).
The subject was administered a BHB salt solution containing 4% Na^+/K^+ BHB salts in solution, an MCT oil, or a combination of the 4% Na^+/K^+ BHB salts and the MCT oil. At 15, 30, 60, 120, 240 and 480 minutes after administration, blood was drawn. The subject returned on days 2 and 3 for additional supplements, with blood taken as on day 1. Levels of BHB in the blood were determined as described above.

[2] = design: species or system Sprague-Dawley rats; conditions: rat, in vivo
From the text: (§1) Subject rats (n=74), 275-325 grams, were randomly assigned to a control group (no supplementation) or to one of three ketone precursor groups: medium chain triglyceride (MCT) oil (MO), mineral (Na^+/K+) salt of β-hydroxybutyrate (βHB) (SO), or SO+MO 1:1 combination (SM). The ketone mineral salt was developed and synthesized by Dr. Patrick Arnold from Prototype Nutrition. Pure pharmaceutical grade MCT oil was purchased from Now Foods (Bloomingdale, Ill.). SM was mixed at a 1:1 ratio.
(§2) Rats were supplemented with medium chain triglyceride (MCT) oil (MO), or a mineral (Na+/K+) salt of β-hydroxybutyrate (βHB) (SO), or SO+MO 1:1 mixture (SM) and force fed a daily at a dose of 5 g/kg body weight on days 1-14, followed by a 10 g/kg dose on days 15-28 rats Supplementation was given between 10 am and […] daily to eliminate variance based on regular eating patterns. Diets were not restricted for this study.
Once a week, animals were fasted for 4 hours prior to intragastric gavage of the appropriate ketone supplement. The four hour food restriction was used to eliminate normal variance in blood glucose and ketone levels due to food consumption. […]

[3] = Blood βHB levels of a fasted 70 kg subject after oral administration; type: in vivo, human; design: unit: mM; conditions: for Blood βHB levels Mean: 70 kg male, mean of 3 days; for Blood βHB levels Day 1 / Blood βHB levels Day 2 / Blood βHB levels Day 3: 70 kg person
Procedure: (§3) To determine the time course of ketosis, the subjects were orally given the test substances of a BHB salt solution (450 mL; 4%, approximately 18 g), an MCT oil (30 mL, approximately 30 g), or a combination of the a BHB salt solution and an MCT oil. Blood concentrations of glucose and BHB were determined utilizing a commercially available glucose/ketone monitoring system (Precision Xtra® blood glucose and ketone meter) at defined time points (0, 15, 30, 60, 120, 240 and 480 minutes following ingestion of the test substances). Subject (70 kg) was instructed to fast for three days, and was given a single daily oral administration of either ßHB salts (4% solution containing 11 grams sodium ßHB and 7.1 grams potassium ßHB), MCT oil or ßHB salts+MCT oil at 15, 30, 60, 120, 240 and 480 minutes on 3 consecutive days. At 15, 30, 60, 120, 240 and 480 minutes after administration, blood was drawn. The subject returned on days 2 and 3 for additional supplements, with blood taken as on day 1, as in Example 1.

[4] = Blood glucose levels of a fasted 70 kg subject after oral administration; type: in vivo, human; conditions: for Blood glucose levels Mean: 70 kg male, mean of 3 days; for Blood glucose levels Day 1 / Blood glucose levels Day 2 / Blood glucose levels Day 3: 70 kg person
Procedure: as §3, with “1. […] Blood glucose levels were determined as described above.” for “1.”

[5] = Blood glucose levels in rats after ketone supplementation; type: in vivo, Sprague-Dawley rats
From the text: as §1, §2
Once a week, animals were fasted for 4 hours prior to intragastric gavage of the appropriate ketone supplement. The four hour food restriction was used to eliminate normal variance in blood glucose and ketone levels due to food consumption. Whole blood samples (10 μL) were acquired from the saphenous vein of the subjects for analysis of glucose and βHB utilizing the commercially available glucose and ketone monitoring system Precision Xtra™ (Abbott Laboratories, Abbott Park, Ill.) at time intervals of 0, 0.5, 1, 4, 8, and 12 hours after ketone precursor supplements were administered, or until βHB returned to baseline. On Day 0 (Week 0) and Day 28 (Week 4), whole blood samples (10 μL) were acquired for analysis of total cholesterol, HDL, and triglycerides for a lipid panel utilizing the commercially available home cholesterol analyzer Cardio Chek™ (Polymer Technology Systems, Inc., Indianapolis, Ind.) at time 0. Animals were weighed once per week to maintain accurate dosage using the Mittler Toledo SB 16001 scales.

[6] = Change of body weight in rats during 28 days of ketone supplementation; type: in vivo, Sprague-Dawley rats; conditions: daily for 28 days
Procedure: Diets were not restricted for this study. Once a week, animals were fasted for 4 hours prior to intragastric gavage of the appropriate ketone supplement. The four hour food restriction was used to eliminate normal variance in blood glucose and ketone levels due to food consumption. […] Animals were weighed once per week to maintain accurate dosage using the […] Toledo SB 16001 scales. Rats were administered SO, MO, or SM daily for 28 days as described above. Each week the animals were weighed. […] The control animals continued to gain weight throughout the month-long study. In comparison, the ketone supplement treatment groups all gained less weight. […] A key finding of this study is that the SM group was able to limit weight gain in an unexpected way as the amounts of BHB and MCT when combined were much lower than the amounts of those ingredients used in the SO and MO treatment groups. This effect on body weight gain is likely due to appetite suppression caused by the supplements, rather than a reduced intake of the supplement itself, as force feeding controlled for dosing.

medium chain triglyceride (MCT) oil [MCT (30 mL)]
Elevation in BHB levels (in words) [1]: little elevation in BHB levels | Time of peak plasma BHB level after administration [1]: 60 min | Triglyceride levels at week 4 compared with week 0 [2]: little change

CC(O)CC(=O)O (stereo not drawn) [BHB salt (450 mL), β-hydroxybutyrate]
Elevation in BHB levels (in words) [1]: higher elevation in BHB levels than MCT oil alone | Blood βHB levels Mean ([3]; time 0 minutes): 0.87 | Blood βHB levels Mean ([3]; time 30 minutes): 1.73 | Blood βHB levels Mean ([3]; time 60 minutes): 2.77 | Blood βHB levels Mean ([3]; time 120 minutes): 1.73 | Blood βHB levels Mean ([3]; time 240 minutes): 1.53 | Blood βHB levels Mean ([3]; time 480 minutes): 1.53 | Blood βHB levels Day 1 ([3]; time 0 minutes): 0.2 | Blood βHB levels Day 2 ([3]; time 0 minutes): 0.6 | Blood βHB levels Day 3 ([3]; time 0 minutes): 1.8 | Blood βHB levels Day 1 ([3]; time 30 minutes): 0.7 | Blood βHB levels Day 2 ([3]; time 30 minutes): 1.8 | Blood βHB levels Day 3 ([3]; time 30 minutes): 2.7 | Blood βHB levels Day 1 ([3]; time 60 minutes): 1.1 | Blood βHB levels Day 2 ([3]; time 60 minutes): 2.4 | Blood βHB levels Day 3 ([3]; time 60 minutes): 4.8 | Blood βHB levels Day 1 ([3]; time 120 minutes): 0.3 | Blood βHB levels Day 2 ([3]; time 120 minutes): 1.6 | Blood βHB levels Day 3 ([3]; time 120 minutes): 3.3 | Blood βHB levels Day 1 ([3]; time 240 minutes): 0.4 | Blood βHB levels Day 2 ([3]; time 240 minutes): 1.2 | Blood βHB levels Day 3 ([3]; time 240 minutes): 3 | Blood βHB levels Day 1 ([3]; time 480 minutes): 0.6 | Blood βHB levels Day 2 ([3]; time 480 minutes): 1.6 | Blood βHB levels Day 3 ([3]; time 480 minutes): 2.4 | Blood glucose levels Mean ([4]; time 0 minutes): 90.00 | Blood glucose levels Mean ([4]; time 30 minutes): 87.00 | Blood glucose levels Mean ([4]; time 60 minutes): 81.00 | Blood glucose levels Mean ([4]; time 120 minutes): 77.33 | Blood glucose levels Mean ([4]; time 240 minutes): 77.33 | Blood glucose levels Mean ([4]; time 480 minutes): 74.67 | Blood glucose levels Day 1 ([4]; time 0 minutes): 100 | Blood glucose levels Day 2 ([4]; time 0 minutes): 90 | Blood glucose levels Day 3 ([4]; time 0 minutes): 80 | Blood glucose levels Day 1 ([4]; time 30 minutes): 95 | Blood glucose levels Day 2 ([4]; time 30 minutes): 95 | Blood glucose levels Day 3 ([4]; time 30 minutes): 71 | Blood glucose levels Day 1 ([4]; time 60 minutes): 85 | Blood glucose levels Day 2 ([4]; time 60 minutes): 90 | Blood glucose levels Day 3 ([4]; time 60 minutes): 68 | Blood glucose levels Day 1 ([4]; time 120 minutes): 82 | Blood glucose levels Day 2 ([4]; time 120 minutes): 85 | Blood glucose levels Day 3 ([4]; time 120 minutes): 65 | Blood glucose levels Day 1 ([4]; time 240 minutes): 80 | Blood glucose levels Day 2 ([4]; time 240 minutes): 84 | Blood glucose levels Day 3 ([4]; time 240 minutes): 68 | Blood glucose levels Day 1 ([4]; time 480 minutes): 76 | Blood glucose levels Day 2 ([4]; time 480 minutes): 80 | Blood glucose levels Day 3 ([4]; time 480 minutes): 68 | Blood glucose versus control (in words) ([5]; 5 g/kg, week 0): did not show any significant difference compared to control | Blood glucose versus control (in words) ([5]; 5 g/kg, week 1): began reducing glucose by 8 hours | Blood glucose versus control (in words) ([5]; 10 g/kg, week 2 onward): reduced glucose levels at 30 minutes through 8 hours | Triglyceride levels at week 4 compared with week 0 [2]: mildly elevated | Body weight gain compared to controls (in words) [6]: gained significantly less weight compared to controls
